Measurements from PMC2099433, “The binding site for neohesperidin dihydrochalcone at the human sweet taste receptor” (BMC Structural Biology, 2007).
Positions count from the first letter of the chain named. Where a SMILES comes first, the peptide text is derived from it.

Columns and labels:
[1] = target: T1, hTAS1R2 + hTAS1R3 H734A^5.47 (Homo sapiens, UniProt Q7RTX0+Q8TE23, H734A); assay: Calcium response (FLIPR), hTAS1R3 mutant coexpressed with hTAS1R2; assay type: cell-based; details: for receptor response: mutant H734A^5.47; for EC50: variant H734A^5.47, n.f. = no response to any tested sweetener
T1 construct: expressed in transfected cells; host or cells: HEK293T cells stably expressing G16Gust44
T1 sequence (Q8TE23 20-839): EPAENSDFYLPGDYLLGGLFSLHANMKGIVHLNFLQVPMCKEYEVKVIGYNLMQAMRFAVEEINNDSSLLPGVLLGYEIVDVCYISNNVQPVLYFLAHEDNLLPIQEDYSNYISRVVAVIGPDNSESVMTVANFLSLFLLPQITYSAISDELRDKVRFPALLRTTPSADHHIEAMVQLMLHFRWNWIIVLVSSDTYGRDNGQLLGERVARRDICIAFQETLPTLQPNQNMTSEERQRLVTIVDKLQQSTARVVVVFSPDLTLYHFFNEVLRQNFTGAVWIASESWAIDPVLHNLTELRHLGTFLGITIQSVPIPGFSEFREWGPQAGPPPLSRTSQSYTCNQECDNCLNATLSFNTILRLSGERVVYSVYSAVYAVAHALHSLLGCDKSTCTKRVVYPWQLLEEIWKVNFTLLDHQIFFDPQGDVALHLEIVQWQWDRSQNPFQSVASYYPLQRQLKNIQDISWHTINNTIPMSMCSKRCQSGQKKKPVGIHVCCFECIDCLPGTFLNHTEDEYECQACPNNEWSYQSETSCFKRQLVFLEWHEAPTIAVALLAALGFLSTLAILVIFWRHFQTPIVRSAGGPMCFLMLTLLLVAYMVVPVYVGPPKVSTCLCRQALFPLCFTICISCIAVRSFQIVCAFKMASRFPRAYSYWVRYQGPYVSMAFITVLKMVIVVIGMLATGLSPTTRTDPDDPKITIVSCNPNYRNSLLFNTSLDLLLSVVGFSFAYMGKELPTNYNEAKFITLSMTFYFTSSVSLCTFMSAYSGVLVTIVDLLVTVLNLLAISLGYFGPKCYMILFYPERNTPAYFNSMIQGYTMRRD
T1 sequence (Q7RTX0 21-852 H734A): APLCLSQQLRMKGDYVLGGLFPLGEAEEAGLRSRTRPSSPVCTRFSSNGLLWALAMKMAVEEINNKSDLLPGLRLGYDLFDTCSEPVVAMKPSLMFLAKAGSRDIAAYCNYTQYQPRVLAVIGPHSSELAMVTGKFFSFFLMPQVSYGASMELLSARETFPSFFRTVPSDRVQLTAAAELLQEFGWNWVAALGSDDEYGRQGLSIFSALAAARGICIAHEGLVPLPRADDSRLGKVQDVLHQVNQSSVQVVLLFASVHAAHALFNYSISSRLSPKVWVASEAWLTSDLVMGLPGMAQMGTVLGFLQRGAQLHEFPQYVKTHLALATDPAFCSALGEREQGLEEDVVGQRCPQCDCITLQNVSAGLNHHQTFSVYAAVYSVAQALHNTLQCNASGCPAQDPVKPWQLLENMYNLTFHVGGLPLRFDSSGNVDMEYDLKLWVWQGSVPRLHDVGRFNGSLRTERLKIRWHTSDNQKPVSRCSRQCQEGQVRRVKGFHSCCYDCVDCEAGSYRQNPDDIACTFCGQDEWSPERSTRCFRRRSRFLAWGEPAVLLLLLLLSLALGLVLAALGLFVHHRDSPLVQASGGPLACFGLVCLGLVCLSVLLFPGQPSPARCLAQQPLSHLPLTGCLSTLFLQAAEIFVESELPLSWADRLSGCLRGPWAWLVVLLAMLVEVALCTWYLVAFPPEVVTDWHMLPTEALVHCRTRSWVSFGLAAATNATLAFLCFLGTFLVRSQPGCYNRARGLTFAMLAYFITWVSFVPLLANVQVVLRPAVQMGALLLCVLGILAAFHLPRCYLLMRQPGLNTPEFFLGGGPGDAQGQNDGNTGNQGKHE
Protocol: (§1) The cDNAs for TAS1Rs tagged at the C-terminus with the herpes simplex virus glycoprotein D (HSV) were transiently transfected into HEK293T cells stably expressing the chimeric G-protein subunit G16Gust44 [44] using Lipofectamine 2000 (Invitrogen, Carlsbad, CA) according to the manufacturer's protocol. 3–4 hours after transfection, DMEM was replaced by low-glucose DMEM supplemented with GlutaMAX and 10% dialyzed FBS (Invitrogen, Carlsbad, CA). 24 h post transfection, cells were loaded for 1 h with the calcium sensitive dye Fluo4-AM (2 μg/ml in DMEM, Molecular Probes, Carlsbad, CA). […] We monitored calcium mobilization following receptor stimulation with sweet tastants by an automated fluorometric imaging plate reader (FLIPR, Molecular Devices, Sunnyvale, CA). Compounds used as stimuli (Sigma-Aldrich, St. Louis, MO; Merck, Whitehouse Station, NJ) were dissolved in C1 solution. All data were collected from at least three independent experiments carried out in duplicate. The obtained calcium signals were corrected for the response of mock transfected cells and normalized to the fluorescence of cells prior to the application of the stimulus using ΔF/F = (F-F0)/F0.

[2] = target: T2, hTAS1R2 + hTAS1R3 C801L^7.39 (Homo sapiens, UniProt Q7RTX0+Q8TE23, C801L); assay: as above; assay type: cell-based; details: for receptor activation: mutant C801L^7.39; for EC50: variant C801L^7.39, n.f. = no response to any tested sweetener
T2 construct: expressed in transfected cells; host or cells: HEK293T cells stably expressing G16Gust44
T2 sequence (Q7RTX0 21-852 C801L): T1 sequence (Q7RTX0 21-852 H734A) with A714H, C781L
T2 sequence (Q8TE23 20-839): T1 sequence (Q8TE23 20-839)
Protocol: as §1

## CC1=CC(=O)NS(=O)(=O)O1 [acesulfame K]
[1]
  receptor response: did not respond
[2]
  receptor activation: could not be activated

## COc1ccc(CCC(=O)c2c(O)cc(O[C@@H]3O[C@H](CO)[C@@H](O)[C@H](O)[C@H]3O[C@@H]3O[C@@H](C)[C@H](O)[C@@H](O)[C@H]3O)cc2O)cc1O [NHDC, neohesperidin dihydrochalcone]
[1]
  receptor response: did not respond
  EC50: n.f.
[2]
  receptor activation: could not be activated
  EC50: n.f.

## O=S(=O)(O)NC1CCCCC1 [cyclamate]
[1]
  receptor response: did not respond
[2]
  receptor activation: could not be activated

## COC(=O)[C@H](Cc1ccccc1)NC(=O)[C@@H](N)CC(=O)O [aspartame] (HELM PEPTIDE1{D.F.[CO[*:1]]}$$$$V2.0)
[1]
  receptor response: did not respond
  EC50: n.f.
[2]
  receptor activation: could not be activated
  EC50: n.f.
